Results reported in patent publication US20060223837A1 (priority 2005, published 2006).

Tests used:
[1] = test system: dextran sulfate induced colitis; conditions: animal model; cited from earlier work
[2] = test system: CFA-induced mechanical hyperalgesia; conditions: literature; cited from earlier work
neuropathic pain = conditions: chronic constriction injury rodent neuropathic pain model; cited from earlier work
human VR1 [3] = molecular target: T1, human VR1 (Homo sapiens, UniProt Q8NER1); experiment: Human VR1 functional assay (FLIPR intracellular Ca2+); assay type: cell-based; conditions: for IC50: antagonism of capsaicin-induced Ca2+ increase, read-out: h IC50; for inhibition at 1 µM / inhibition at 5 µM: inhibition of capsaicin response; for inhibition at 1 µM: read-out: h % I (1 μM); for inhibition at 5 µM: read-out: h % I (5 μM)
T1 construct: expressed in transfected cells; host or cells: HEK293
T1 sequence (Q8NER1 whole entry): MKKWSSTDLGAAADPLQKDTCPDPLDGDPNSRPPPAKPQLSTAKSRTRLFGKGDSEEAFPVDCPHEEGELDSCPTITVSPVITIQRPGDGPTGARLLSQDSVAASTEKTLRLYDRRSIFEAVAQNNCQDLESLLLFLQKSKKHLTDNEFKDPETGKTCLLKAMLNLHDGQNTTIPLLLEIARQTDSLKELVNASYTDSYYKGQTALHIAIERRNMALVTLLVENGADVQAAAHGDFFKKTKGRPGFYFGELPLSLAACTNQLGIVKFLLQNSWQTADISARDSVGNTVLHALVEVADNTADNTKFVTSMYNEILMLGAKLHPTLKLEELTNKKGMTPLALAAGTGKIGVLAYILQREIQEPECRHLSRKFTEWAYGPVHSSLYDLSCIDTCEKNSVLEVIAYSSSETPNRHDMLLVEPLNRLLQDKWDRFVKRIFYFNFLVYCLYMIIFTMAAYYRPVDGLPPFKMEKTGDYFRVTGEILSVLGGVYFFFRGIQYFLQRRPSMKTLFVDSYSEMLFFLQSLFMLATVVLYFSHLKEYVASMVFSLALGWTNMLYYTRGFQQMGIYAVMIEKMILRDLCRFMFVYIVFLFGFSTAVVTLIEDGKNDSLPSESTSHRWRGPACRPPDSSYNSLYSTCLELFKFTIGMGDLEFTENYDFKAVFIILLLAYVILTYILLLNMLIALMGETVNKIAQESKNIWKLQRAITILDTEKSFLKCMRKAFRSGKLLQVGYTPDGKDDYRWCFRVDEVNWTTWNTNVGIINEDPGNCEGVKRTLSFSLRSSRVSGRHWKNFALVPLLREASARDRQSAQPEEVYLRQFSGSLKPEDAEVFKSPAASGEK
In short: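 Read-out was Ca2+-dye fluorescence by FLIPR: compounds at varying concentrations were added to dye-loaded human VR1 HEK293 cells and monitored 5 min before capsaicin addition ([…], approx. EC80). Dose-response data, averaged over four wells, gave EC50 or IC50.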

human VR1 [4] = molecular target: T1, human VR1; experiment: Human VR1 [3H]RTX binding assay; conditions: [3H]RTX binding, HEK293 membranes
In short: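 Inhibition of [3H]resiniferatoxin binding measured on HEK293-hVR1 membranes over 60 min at 37 C, pH 7.4 HEPES buffer containing BSA. Pellet radioactivity counted; 200 nM cold RTX gave nonspecific binding. % inhibition computed and Ki derived from duplicate measurements.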

chronic arthritis = conditions: tail vein model; cited from earlier work
cough = conditions: capsaicin and citric acid induced cough, guinea pig; cited from earlier work

Row | Compound | IC50 (human VR1 [3]) | inhibition at 1 µM (human VR1 [3]) | Ki (human VR1 [4]) | inhibition at 5 µM (human VR1 [3]) | further results
1 | Nc1ccc(O)c(C(=O)O)c1 [5-ASA] | – | – | – | – | protection against colitis [1]: protects against dextran sulfate induced colitis
2 | CC(C)(C)c1ccc(NC(=O)N2CCN(c3ncccc3Cl)CC2)cc1 [BCTC] | – | – | – | – | effect on hyperalgesia [2]: reduced hyperalgesia; effect on mechanical hyperalgesia and tactile allodynia (neuropathic pain): reduced mechanical hyperalgesia and tactile allodynia
3 | O=C(CCc1ccc(C(F)(F)F)cc1)Nc1ccc(-n2cnc(Cl)c2)c(C(F)(F)F)c1 [Cpd 227, N-[4-(4-Chloro-imidazol-1-yl)-3-trifluoromethyl-phenyl]-3-(4-trifluoromethyl-phenyl)-propionamide] | 168 nM | 100% | 90.8 nM | – | –
4 | O=C(/C=C/c1ccc(SC(F)(F)F)cc1)Nc1ccc(-n2cnc(Cl)c2Cl)c(C(F)(F)F)c1 [Cpd 228] | 171 nM | 92% | 41.6 nM | – | –
5 | O=C(CCc1ccc(C(F)(F)F)cc1)Nc1ccc(-c2ccc(O)cc2)c(C(F)(F)F)c1 [Cpd 229] | 195 nM | – | 99.2 nM | 100% | –
6 | O=C(CCc1ccc(Cl)cc1)Nc1ccc(-c2ccncc2)c(C(F)(F)F)c1 [Cpd 230] | 202 nM | – | 1020 nM | 101% | –
7 | O=C(CCc1ccc(Cl)cc1)Nc1ccc(-n2cnc(Cl)c2Cl)c(C(F)(F)F)c1 [Cpd 231] | 240 nM | 90% | 26.2 nM | – | –
8 | Cc1cc(NC(=O)CCc2ccc(N(C)C3CCCCC3)cc2)cnc1-n1cnc(Cl)c1Cl [Cpd 232] | 249 nM | 99% | 80 nM | – | –
9 | Cc1cn(-c2ccc(NC(=O)CCc3ccc(C(F)(F)F)cn3)cc2C(F)(F)F)cn1 [Cpd 233, N-[4-(4-Methyl-imidazol-1-yl)-3-trifluoromethyl-phenyl]-3-(5-trifluoromethyl-pyridin-2-yl)-propionamide] | 259 nM | 98% | 1000 nM | – | –
10 | Cc1cc(NC(=O)CCc2ccc(Cl)cc2)cnc1-n1cnc(Cl)c1Cl [Cpd 234] | 290 nM | 88% | 85.5 nM | – | –
11 | O=C(CCc1ccc(C(F)(F)F)cc1)Nc1cnc(-n2ccnc2)c(C(F)(F)F)c1 [Cpd 240] | 379 nM | – | 3850 nM | 101% | –
12 | Cc1cc(NC(=O)/C=C/c2ccc(N(C)C3CCCCC3)cc2)cnc1-n1cnc(Cl)c1Cl [Cpd 241, trans-3-[4-(Cyclohexyl-methyl-amino)-phenyl]-N-[6-(4,5-dichloro-imidazol-1-yl)-5-methyl-pyridin-3-yl]-acrylamide] | 396 nM | 92% | 79.8 nM | – | –
13 | O=C(CCc1ccc(Cl)cc1)Nc1ccc(-n2ccnc2)c(C(F)(F)F)c1 [Cpd 242] | 400 nM | 76% | 2110 nM | – | –
14 | O=C(CCc1ccc(C(F)(F)F)cc1)Nc1ccc(C2=NOS(=O)N2)c(C(F)(F)F)c1 (centres unmarked) [Cpd 245, N-[4-(2-Oxo-2,3-dihydro-2λ^4-[1,2,3,5]oxathiadiazol-4-yl)-3-trifluoromethyl-phenyl]-3-(4-trifluoromethyl-phenyl)-propionamide] | 491 nM | 70% | 974 nM | 9% | –
15 | Cc1cc(NC(=O)CCc2ccc(C(C)(C)C)cc2)cnc1-c1cccc(C#N)c1 [Cpd 246] | 543 nM | – | 371 nM | 105% | –
16 | O=C(CCc1ccc(C(F)(F)F)cc1)Nc1ccc(-c2ccc(CO)cc2)c(C(F)(F)F)c1 [Cpd 250] | 718 nM | – | 199 nM | 100% | –
17 | O=C(CCc1ccc(C(F)(F)F)cc1)Nc1cnc(-n2cnc(Cl)c2Cl)c(C(F)(F)F)c1 [Cpd 251] | 724 nM | – | 134 nM | 101% | –
18 | O=C(CCc1ccccc1)Nc1ccc(-c2ccncc2)c(C(F)(F)F)c1 [Cpd 252] | 896 nM | – | 5350 nM | 100% | –
19 | O=C(CCc1ccc(C(F)(F)F)cc1)Nc1ccc(-n2cnc3ccccc32)c(C(F)(F)F)c1 [Cpd 253] | 952 nM | 52% | 44.3 nM | – | –
20 | O=C(CCc1ccc(C(F)(F)F)cc1)Nc1ccc(-c2ccnc(F)c2)c(C(F)(F)F)c1 [Cpd 254] | 995 nM | – | 293 nM | 98% | –
21 | O=C(CCc1ccc(C(F)(F)F)cc1)Nc1cnc(-c2ccncc2)c(C(F)(F)F)c1 [Cpd 255] | – | – | 329 nM | 100% | –
22 | O=C(CCc1ccc(C(F)(F)F)cc1)Nc1ccc(-c2cccnc2F)c(C(F)(F)F)c1 [Cpd 258] | – | – | 500 nM | 93% | –
23 | Cc1cc(NC(=O)CCc2ccc(C(C)(C)C)cc2)cnc1-c1cccc([N+](=O)[O-])c1 [Cpd 260] | – | – | 391 nM | 93% | –
24 | O=C(CCc1ccc(C(F)(F)F)cc1)Nc1ccc(-n2cnc(Cl)c2Cl)cc1 [Cpd 263] | – | – | 84.4 nM | 67% | –
25 | Cc1cn(-c2ccc(NC(=O)/C=C/c3ccc(C(F)(F)F)cn3)cc2C(F)(F)F)cn1 [Cpd 277] | – | 38% | 140 nM | – | –
26 | O=C(O)Cc1ccccc1Nc1c(Cl)cccc1Cl [diclofenac] | – | – | – | – | pain relief (chronic arthritis): partially effective; effect on hyperalgesia [2]: reversed the hyperalgesic effect of zymosan
27 | COc1ccc2c(c1)c(CC(=O)O)c(C)n2C(=O)c1ccc(Cl)cc1 [indomethacin] | – | – | – | – | pain relief (chronic arthritis): partially effective
28 | C=C(C)[C@]12C[C@@H](C)[C@@]34O[C@](Cc5ccccc5)(O[C@@H]1[C@@H]3C=C(COC(=O)Cc1cc(I)c(O)c(OC)c1)C[C@]1(O)C(=O)C(C)=C[C@@H]41)O2 [iodo-resiniferatoxin] | – | – | – | – | antitussive action (cough): antitussive action
29 | CN1CC[C@]23c4c5ccc(O)c4O[C@H]2[C@@H](O)C=C[C@H]3[C@H]1C5 [morphine] | – | – | – | – | pain relief (chronic arthritis): fully relieved pain
30 | COc1cccc(C2(O)CCCCC2CN(C)C)c1 (centres unmarked) [tramadol] | – | – | – | – | pain relief (chronic arthritis): fully relieved pain
